Assays:
[1] = molecular target: T1, Thymidine kinase, cytosolic (Homo sapiens) (UniProt P04183); experiment: Inhibition of human recombinant TK1 phosphorylation after 15 mins by pyruvate kinase/lactate dehydrogenase coupled assay relative to thymidine
T1 sequence (whole entry): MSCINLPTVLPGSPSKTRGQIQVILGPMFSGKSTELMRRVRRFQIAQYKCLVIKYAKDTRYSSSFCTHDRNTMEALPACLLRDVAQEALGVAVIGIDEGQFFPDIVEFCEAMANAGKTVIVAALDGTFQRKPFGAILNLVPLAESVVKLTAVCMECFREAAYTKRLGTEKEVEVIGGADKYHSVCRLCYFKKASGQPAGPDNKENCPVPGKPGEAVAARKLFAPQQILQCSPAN

[2] = test system: SK-N-MC; experiment: Drug uptake in human SK-N-MC cells at 111 kBq after 2 hrs by […]; format: ADME, cell-based

Structure (SMILES) | inhibition [1] [%] | Drug uptake [2] [%ID/mg/ml]
C#CCn1c(=O)c(C)cn([C@H]2C[C@H](O)[C@@H](CO)O2)c1=O | 86.7 | –
[3H]C([3H])([3H])c1cn([C@H]2C[C@H](O)[C@@H](CO)O2)c(=O)[nH]c1=O | – | 29

Reference: ChEMBL document CHEMBL1142512, “Synthesis, in vitro, and in silico evaluation of organometallic technetium and rhenium thymidine complexes with retained substrate activity toward human thymidine kinase type 1” (J Med Chem, 2008)
